We go through 2 compounds from PMC4235344, “A single-component multidrug transporter of the major facilitator superfamily is part of a network that protects E scherichia coli from bile salt stress” (Molecular Microbiology, 2014).

This test has as its target T1, MdtM (Escherichia coli, UniProt P39386).
T1 construct: full-length wild-type, pBAD/Myc-His A vector (pMdtM), homologously overexpressed in E. coli LMG194, purified in DDM
Briefly: intrinsic Trp fluorescence quenching. The format is binding.

T1 sequence (P39386 whole entry): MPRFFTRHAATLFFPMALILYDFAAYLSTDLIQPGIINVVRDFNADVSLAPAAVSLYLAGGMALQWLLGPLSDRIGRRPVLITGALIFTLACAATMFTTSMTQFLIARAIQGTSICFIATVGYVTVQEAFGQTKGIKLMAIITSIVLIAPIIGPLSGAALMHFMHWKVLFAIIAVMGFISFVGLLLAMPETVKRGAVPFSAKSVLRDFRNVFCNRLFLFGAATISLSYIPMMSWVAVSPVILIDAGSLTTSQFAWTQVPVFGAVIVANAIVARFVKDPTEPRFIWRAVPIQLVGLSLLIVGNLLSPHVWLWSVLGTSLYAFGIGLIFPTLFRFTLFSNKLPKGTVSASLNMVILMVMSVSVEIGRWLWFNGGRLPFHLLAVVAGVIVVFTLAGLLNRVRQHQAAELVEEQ

For orientation: Kd means the free concentration of one partner at which half of the binding sites on the other are occupied at equilibrium, for simple one-to-one binding. A low value points to a tighter complex. The compound `C[C@H](CCC(=O)O)[C@H]1CC[C@H]2[C@@H]3[C@H](O)C[C@@H]4C[C@H](O)CC[C@]4(C)[C@H]3C[C@H](O)[C@]12C` [cholate] came in with a Kd of 24 ± 6 µM.

`C[C@H](CCC(=O)O)[C@H]1CC[C@H]2[C@@H]3CC[C@@H]4C[C@H](O)CC[C@]4(C)[C@H]3C[C@H](O)[C@]12C` [deoxycholate] came in with a Kd of 176 ± 20 µM.
